Starred links: 1 amine or outer side, 2 acyl side, 3 side chain; linkers in the order of their positions; H or OH if unused. Positions of bridges follow the written chain, without caps; N, C: chain ends. Non-standard residues stand in square brackets, D forms with d. Residues, ends and D or L forms follow the SMILES beside them. *: point of attachment. hPhe(3-Cl-4-CF3) = N[C@@H](CCc1ccc(C(F)(F)F)c(Cl)c1)C(=O)O; hPhe(4-CF3) = N[C@@H](CCc1ccc(C(F)(F)F)cc1)C(=O)O; NMeAla(4-thiazolyl) = CN[C@@H](Cc1cscn1)C(=O)O; Phe(2-CF3) = N[C@@H](Cc1ccccc1C(F)(F)F)C(=O)O; NMe3Pal(6-Me) = CN[C@@H](Cc1ccc(C)nc1)C(=O)O; NMePhe(4-Cl) = CN[C@@H](Cc1ccc(Cl)cc1)C(=O)O; NMePhe(4-Me) = CN[C@@H](Cc1ccc(C)cc1)C(=O)O; hPhe(4-Cl) = N[C@@H](CCc1ccc(Cl)cc1)C(=O)O; NMedβ3hAla = C[C@H](CC(=O)[*:2])N(C)[*:1]; NMeGly(cPent) = CN[C@H](C(=O)O)C1CCCC1; Phe(3-I) = N[C@@H](Cc1cccc(I)c1)C(=O)O; NMeCha = CN[C@@H](CC1CCCCC1)C(=O)O; Azetidine(3,3-F2) = FC1(F)CN(*)C1; N(isopentyl)Gly = CC(C)CCNCC(=O)O; NMehLeu = CN[C@@H](CCC(C)C)C(=O)O; NMeChg = CN[C@H](C(=O)O)C1CCCCC1; NMeF = CN[C@@H](Cc1ccccc1)C(=O)O; NMeD = CN[C@@H](CC(=O)O)C(=O)O; NMeL = CN[C@@H](CC(C)C)C(=O)O; NMeV = CN[C@H](C(=O)O)C(C)C; d(β3hA) = C[C@@H](N)CC(=O)O; Azetidin(1-yl) = C1CN(*)C1; NMeA = CN[C@@H](C)C(=O)O; NMeAib = CNC(C)(C)C(=O)O; Piperidide = C1CCN(*)CC1; Pyrrolidide = C1CCN(*)C1; Ac5c = NC1(C(=O)O)CCCC1; Aze = O=C(O)[C@@H]1CCN1; Thp = NC1(C(=O)O)CCOCC1; Isopentyl = CC(C)CC*; Sar = CNCC(=O)O
molecular target: T1, Kras and SOS1 (biotin-tagged human Kras loaded with GDP, His-tagged human SOS1) (Homo sapiens, UniProt P01116, G12D); assay: Protein-protein interaction inhibition between Kras and SOS1 (KrasGl2D-SOS PPI) using AlphaScreen; assay type: binding; details: AlphaScreen; biotin-tagged human Kras loaded with GDP, His-tagged human SOS1; read-out: KRAS G12D-SOS PPI IC50
T1 construct: made in house; host or cells: E. coli (stated for Kras only)
T1 sequence (P01116 1-188 isoform P01116-2 G12D): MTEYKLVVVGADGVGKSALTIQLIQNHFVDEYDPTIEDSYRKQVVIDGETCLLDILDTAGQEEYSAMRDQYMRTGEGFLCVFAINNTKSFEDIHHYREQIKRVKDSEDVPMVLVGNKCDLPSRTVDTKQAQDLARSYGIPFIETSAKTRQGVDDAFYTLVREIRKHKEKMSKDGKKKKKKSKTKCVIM
Procedure, shortened: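 Kras was produced in E. coli, purified, then loaded with GDP. It was paired via streptavidin acceptor beads with His-SOS1 held on nickel donor beads, and proximity signal at 520-620 nm was read after 680 nm illumination.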

Point of comparison: `CC(C)CCOC[C@@H]1NC(=O)[C@H](CC(C)C)N(C)C(=O)C[C@@H](C(=O)N2CCCCC2)N(C)C(=O)[C@H](C2CCCCC2)N(C)C(=O)C2(CCCC2)NC(=O)[C@@H]2CCCN2C(=O)[C@H](CCc2ccc(C(F)(F)F)c(Cl)c2)NC(=O)CN(C)C(=O)[C@H](CC2CCCCC2)N(C)C(=O)CN(C)C(=O)CN(C)C1=O` [Compound 794] ([NMeL]S(Isopentyl)[Sar][Sar][NMeCha][Sar][hPhe(3-Cl-4-CF3)]P[Ac5c][NMeChg][NMeD]-Piperidide; lactam N-11), IC50 11 nM. Against it:
- CC[C@H](C)[C@@H]1NC(=O)[C@H](CC(C)C)N(C)C(=O)C[C@@H](C(=O)N2CCCCC2)N(C)C(=O)[C@H](C2CCCCC2)N(C)C(=O)C2(CCCC2)NC(=O)[C@H](Cc2ccc(C)nc2)N(C)C(=O)[C@H](CCc2ccc(C(F)(F)F)c(Cl)c2)NC(=O)CN(C)C(=O)[C@H](CC2CCCCC2)N(C)C(=O)[C@@H]2CCN2C(=O)CN(C)C1=O [Compound 786] ([NMeL]I[Sar][Aze][NMeCha][Sar][hPhe(3-Cl-4-CF3)][NMe3Pal(6-Me)][Ac5c][NMeChg][NMeD]-Piperidide; lactam N-11) — 1.8-fold lower, 6 nM
- CC[C@H](C)[C@@H]1NC(=O)[C@H](CC(C)C)N(C)C(=O)C[C@@H](C(=O)N2CCCCC2)N(C)C(=O)[C@H](CC(C)C)NC(=O)C(C)(C)N(C)C(=O)[C@H](Cc2ccccc2C(F)(F)F)NC(=O)[C@H](Cc2cccc(I)c2)NC(=O)CN(C)C(=O)[C@H](Cc2ccc(C)cc2)N(C)C(=O)[C@@H]2CCN2C(=O)CN(C)C1=O [Compound 791] ([NMeL]I[Sar][Aze][NMePhe(4-Me)][Sar][Phe(3-I)][Phe(2-CF3)][NMeAib]L[NMeD]-Piperidide; lactam N-11) — 29-fold higher, 320 nM
- CC[C@H](C)[C@@H]1NC(=O)[C@H](C)N(C)C(=O)C[C@@H](C(=O)N2CCCCC2)N(C)C(=O)[C@H](C(C)C)N(C)C(=O)[C@H](COC)NC(=O)[C@H](CC(=O)N2CC(F)(F)C2)N(C)C(=O)[C@H](CCc2ccc(C(F)(F)F)c(Cl)c2)NC(=O)CN(C)C(=O)[C@H](CC2CCCCC2)N(C)C(=O)CN(C)C(=O)CN(C)C1=O [Compound 793] ([NMeA]I[Sar][Sar][NMeCha][Sar][hPhe(3-Cl-4-CF3)][NMeD](Azetidine(3,3-F2))S(Me)[NMeV][NMeD]-Piperidide; lactam N-11) — 2.2-fold higher, 24 nM
- CC[C@H](C)[C@@H]1NC(=O)[C@H](CC(C)C)N(C)C(=O)C[C@@H](C)NC(=O)[C@H](C(C)C)N(C)C(=O)C2(CCCC2)NC(=O)[C@@H]2CCCN2C(=O)[C@H](CCc2ccc(C(F)(F)F)c(Cl)c2)NC(=O)CN(C)C(=O)[C@H](CC2CCCCC2)N(C)C(=O)CN(CCC(C)C)C(=O)CN(C)C1=O [Compound 801] (cyclo([Ac5c][NMeV][d(β3hA)][NMeL]I[Sar][N(isopentyl)Gly][NMeCha][Sar][hPhe(3-Cl-4-CF3)]P)) — 41-fold higher, 450 nM
- CC[C@H](C)[C@@H]1NC(=O)[C@H](CC(C)C)N(C)C(=O)C[C@@H](C)N(C)C(=O)[C@H](CC(C)C)N(C)C(=O)C2(CCOCC2)NC(=O)[C@@H]2CCCN2C(=O)[C@H](CCc2ccc(Cl)cc2)NC(=O)CN(C)C(=O)[C@H](CC2CCCCC2)N(C)C(=O)CN(C)C(=O)CN(C)C1=O [Compound 802] (cyclo(I[Sar][Sar][NMeCha][Sar][hPhe(4-Cl)]P[Thp][NMeL][NMedβ3hAla][NMeL])) — 35-fold higher, 390 nM
- CC[C@H](C)[C@@H]1NC(=O)[C@H](CC(C)C)N(C)C(=O)C[C@@H](C(=O)N(C)C)N(C)C(=O)[C@H](C2CCCC2)N(C)C(=O)[C@H](C)NC(=O)[C@H](Cc2cscn2)N(C)C(=O)[C@H](CCc2ccc(C(F)(F)F)c(Cl)c2)NC(=O)CN(C)C(=O)[C@H](CC2CCCCC2)N(C)C(=O)[C@@H]2CCN2C(=O)[C@H](C)N(C)C1=O [Compound 805] ([NMeL]I[NMeA][Aze][NMeCha][Sar][hPhe(3-Cl-4-CF3)][NMeAla(4-thiazolyl)]A[NMeGly(cPent)][NMeD]-NMe2; lactam N-11) — 3.5-fold higher, 38 nM
- CC[C@H](C)[C@@H]1NC(=O)[C@H](CCC(C)C)N(C)C(=O)C[C@@H](C(=O)N2CCC2)N(C)C(=O)[C@H](C2CCCC2)N(C)C(=O)C2(CCCC2)NC(=O)[C@@H]2CCCN2C(=O)[C@H](CCc2ccc(C(F)(F)F)c(Cl)c2)NC(=O)CN(C)C(=O)[C@H](CC2CCCCC2)N(C)C(=O)[C@@H]2CCN2C(=O)[C@H](C)N(C)C1=O [Compound 806] ([NMehLeu]I[NMeA][Aze][NMeCha][Sar][hPhe(3-Cl-4-CF3)]P[Ac5c][NMeGly(cPent)][NMeD]-{Azetidin(1-yl)}; lactam N-11) — 10-fold lower, 1.1 nM
- CC[C@H](C)[C@@H]1NC(=O)[C@H](C)N(C)C(=O)C[C@@H](C(=O)N2CCCC2)NC(=O)[C@H](CC(C)C)N(C)C(=O)[C@H](Cc2ccccc2)N(C)C(=O)[C@H](CC(C)C)NC(=O)[C@H](CCc2ccc(C(F)(F)F)cc2)NC(=O)CN(C)C(=O)[C@H](Cc2ccc(Cl)cc2)N(C)C(=O)CN(C)C(=O)CNC1=O [Compound 808] ([NMeA]IG[Sar][NMePhe(4-Cl)][Sar][hPhe(4-CF3)]L[NMeF][NMeL]D-Pyrrolidide; lactam N-11) — 9-fold higher, 99 nM

— patent US12371454B2, “Cyclic peptide compound having Kras inhibitory action” (priority 2019, dated 2025)
